# Results as given in patent publication US10793509B2, “Compounds useful in the treatment of neoplastic diseases” (UNIVERSITÄT ZU KÖLN, priority 2013, dated 2020).
# Read-outs that look alike come from different tables or passages of the source.
# What was measured:
# [1] = test system: Primary CLL cells; assay: AnnexinV/PI assay on primary CLL cells; format: cell-based, human; details: Homo sapiens, CLL cell; 24 h incubation, 0.01-100 μM, 5*10^6 cells/ml, normalized to DMSO control; read-out: AnnexinV/PI assay EC50 Primary CLL
# Procedure: (§1) PBMCs or CLL cells (5*10^6 cells/ml) were incubated for 24 h with different compounds at concentrations from 0.01 to 100 μM. Cell survival was normalized to DMSO control [vehicle]. See Example 1.
# (§2) Primary CLL or peripheral blood mononuclear cells of healthy donors (5*10^6/ml) were incubated for 24 h with different compounds according to the invention and NO-ASA as a control. The compounds were added in different concentrations, in particular in concentrations from 0.01-100 μM. Cell survival was assessed by AnnexinV/PI assay (Kit commercially available, e.g. by Biotium Inc, USA; or Phoenix Flow Systems, US), the results were normalized to DMSO control [vehicle] and dose response curves were calculated using a non-linear regression model.
# [2] = test system: peripheral blood mononuclear cells (PBMCs) of healthy donors; assay: AnnexinV/PI assay on PBMCs of healthy donors; format: cell-based; details: Homo sapiens, PBMC, 24 h incubation
# Procedure: as §1, §2
# [3] = 0.01-100 μM, 5*10^6 cells/ml, normalized to DMSO control, read-out: AnnexinV/PI assay EC50 PBMCs
# [4] = value extrapolated beyond tested 0.01-100 μM, read-out: AnnexinV/PI assay EC50 PBMCs (* = extrapolated)
Compound,EC50 [1] [µM],"EC50 [2, 3] [µM]","EC50 [2, 4] [µM]"
"CC(=O)Oc1ccc(C)cc1C(=O)Oc1ccc(CO[N+](=O)[O-])cc1 [B2, 4-((nitrooxy)methyl)phenyl 2-actetoxy-5-methylbenzoate]",4.75,48.5,–
"CC(=O)Oc1cc(C)ccc1C(=O)Oc1ccc(CO[N+](=O)[O-])cc1 [B3, 4-((nitrooxy)methyl)phenyl 2-actetoxy-4-methylbenzoate]",4,55.1,–
"O=C(Oc1ccc(CO)cc1)c1cc(C(F)(F)F)ccc1Cl [B5, 4-(hydroxymethyl)phenyl 2-chloro-5-(trifluoromethyl)benzoate]",37.2,–,108
"O=C(Oc1ccc(CO[N+](=O)[O-])cc1)c1cc(C(F)(F)F)ccc1Cl [B6, 4-((nitrooxy)methyl)phenyl 2-chloro-5-(trifluoromethyl)benzoate]",4.42,73.9,–
"CC(C)(C)[Si](C)(C)OCc1ccc(OC(=O)c2ccccc2)cc1 [B7, 4-(((tert-butyldimethylsilyl)oxy)methyl)phenyl benzoate]",52.8,–,203
"O=C(Oc1ccc(CO)cc1)c1ccccc1 [B8, 4-(hydroxymethyl)phenyl benzoate]",57.3,–,–
"O=COCc1ccc(OC(=O)c2ccccc2)cc1 [B10, 4-((formyloxy)methyl)phenyl benzoate]",79.4,–,859
